Legend:
[1] = Biodistribution of radioactivity in mice after tracer injection; type: in vivo; settings: mean±S.D. n=4
Procedure: [^11C]1 (13 MBq/0.12 nmol) or [^11C]2 (15 MBq/0.36 nmol) was intravenously injected into mice (aged 7–8 weeks, weighing 33–38 g, n = 4). Mice were euthanized by cervical dislocation at 5, 15, 30, or 60 min post-injection.
Blood samples were collected by heart puncture. Tissues were dissected and weighed. The radioactivity in samples was measured with an automatic gamma counter (Wizard 3′′ 1480, PerkinElmer, Waltham, MA, USA). The tissue uptake of radioactivity was expressed as the percentage of injected dose detected per gram of sample (%ID/g, tissue radioactivity/g tissue/injected radioactivity × 100).

[2] = target: T1, NPY Y1-Rs (Mus musculus, UniProt Q04573); test: Effect of pretreatment with 1 (BMS-193885) on tissue distribution of radioactivity; type: in vivo, mice; settings: 30 min post-injection, 1 10 mg/kg 20-30 min before tracer, vs control
T1 construct: in the lung, spleen, and kidney, which are rich in NPY Y1-Rs; from tissue; host or cells: organs of living mice (blood, heart, lung, spleen, kidney, liver, pancreas, muscle, brain etc.)
T1 sequence (Q04573 1-382): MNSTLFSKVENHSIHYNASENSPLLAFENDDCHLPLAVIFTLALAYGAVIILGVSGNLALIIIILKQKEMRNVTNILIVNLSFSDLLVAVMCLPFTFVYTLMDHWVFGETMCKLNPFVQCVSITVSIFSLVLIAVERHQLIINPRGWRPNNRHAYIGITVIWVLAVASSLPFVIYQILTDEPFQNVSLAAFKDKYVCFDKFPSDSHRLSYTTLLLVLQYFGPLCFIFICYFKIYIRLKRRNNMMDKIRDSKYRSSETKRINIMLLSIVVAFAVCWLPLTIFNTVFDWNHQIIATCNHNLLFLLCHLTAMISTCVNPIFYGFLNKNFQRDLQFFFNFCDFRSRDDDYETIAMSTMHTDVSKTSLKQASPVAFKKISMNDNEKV
Procedure: [^11C]1 (7.1–14 MBq/0.079–0.23 nmol) or [^11C]2 (6.0 MBq/0.16 nmol) was intravenously injected into mice (aged 7–8 weeks, weighing 32–36 g, n = 4–8) 20–30 min after the administration of the solution of 1 (10 mg/kg body weight [b.w.]/0.1 mL water containing 20% Tween 80), elacridar (5 mg/kg b.w./0.1 mL water), or a control fluid (0.1 mL water). Mice were euthanized by cervical dislocation at 30 min post-injection.
Blood samples were collected by heart puncture. Tissues were dissected and weighed. […] The tissue uptake of radioactivity was expressed as the percentage of injected dose detected per gram of sample (%ID/g, tissue radioactivity/g tissue/injected radioactivity × 100).

[3] = Analysis of metabolites in mouse plasma (radio-HPLC); type: in vivo, mice
Procedure: [^11C]1 (37–56 MBq/0.73–0.95 nmol) or [^11C]2 (46–61 MBq/1.1–1.5 nmol) was intravenously injected into mice (aged 7–9 weeks, weighing 33–43 g, n = 4). Mice were euthanized by cervical dislocation at 30 min post-injection. Blood samples taken by heart puncture were collected into heparinized syringes. Samples were centrifuged at 13,000×g (Model 5500, KUBOTA, Tokyo, Japan) for 3 min at 4 °C to obtain plasma (0.1–0.2 mL). Plasma samples were added to equivalent volumes of 1 mol/L ammonium acetate solution. Samples were directly loaded into the injector loop, and analyzed using the combination of column-switching HPLC and on-line solid-phase extraction as a modification of the previously described procedures (Chitneni et al. [2008]; Gillings [2009]; Greuter et al. [2005]; Hilton et al. [2000]; Kawamura et al. [2013]). HPLC analysis was performed using the radio-HPLC system for metabolite analysis mentioned in the ‘General’ section above, and also using a Cadenza HS-C18 column (3 μm mesh, 10 mm i.d. × 150 mm length; Imtakt, Kyoto, Japan) fitted with a Cadenza HS-C18 guard cartridge (3 μm mesh, 10 mm i.d. × 8 mm length; Imtakt). Elution was performed using a 0.1 mol/L ammonium acetate solution for 3 min after loading, a mixture of 90% acetonitrile solution and water (0:100 to 40:60, vol./vol.) from 3 to 4 min after loading, and then a mixture of 90% acetonitrile solution and water (40:60, vol./vol.) from 4 to 12 min after loading. The flow rate was 4 mL/min. The retention times of [^11C]1 and [^11C]2 were 10.0 and 10.5 min, respectively.

- Radioactivity level, blood ([1]; 5 min after i.v. injection): 0.76±0.07 %ID/g
- Radioactivity level, blood ([1]; 15 min after i.v. injection): 0.60±0.06 %ID/g
- Radioactivity level, blood ([1]; 30 min after i.v. injection): 0.50±0.04 %ID/g
- Radioactivity level, blood ([1]; 60 min after i.v. injection): 0.46±0.06 %ID/g
- Radioactivity level, brain ([1]; 5 min after i.v. injection): 0.21±0.01 %ID/g
- Radioactivity level, brain ([1]; 15 min after i.v. injection): 0.40±0.06 %ID/g
- Radioactivity level, brain ([1]; 30 min after i.v. injection): 0.32±0.05 %ID/g
- Radioactivity level, brain ([1]; 60 min after i.v. injection): 0.32±0.05 %ID/g
- Radioactivity level, heart ([1]; 5 min after i.v. injection): 1.93±0.23 %ID/g
- Radioactivity level, heart ([1]; 15 min after i.v. injection): 1.38±0.04 %ID/g
- Radioactivity level, heart ([1]; 30 min after i.v. injection): 1.10±0.05 %ID/g
- Radioactivity level, heart ([1]; 60 min after i.v. injection): 0.82±0.07 %ID/g
- Radioactivity level, kidney ([1]; 5 min after i.v. injection): 17.41±1.12 %ID/g
- Radioactivity level, kidney ([1]; 15 min after i.v. injection): 14.06±1.00 %ID/g
- Radioactivity level, kidney ([1]; 30 min after i.v. injection): 12.93±1.01 %ID/g
- Radioactivity level, kidney ([1]; 60 min after i.v. injection): 13.37±2.72 %ID/g
- Radioactivity level, liver ([1]; 5 min after i.v. injection): 16.09±1.85 %ID/g
- Radioactivity level, liver ([1]; 15 min after i.v. injection): 8.82±2.28 %ID/g
- Radioactivity level, liver ([1]; 30 min after i.v. injection): 5.05±0.40 %ID/g
- Radioactivity level, liver ([1]; 60 min after i.v. injection): 4.09±1.60 %ID/g
- Radioactivity level, lung ([1]; 5 min after i.v. injection): 5.08±1.12 %ID/g
- Radioactivity level, lung ([1]; 15 min after i.v. injection): 3.43±0.28 %ID/g
- Radioactivity level, lung ([1]; 30 min after i.v. injection): 2.72±0.21 %ID/g
- Radioactivity level, lung ([1]; 60 min after i.v. injection): 2.13±0.36 %ID/g
- Radioactivity level, muscle ([1]; 5 min after i.v. injection): 0.64±0.05 %ID/g
- Radioactivity level, muscle ([1]; 15 min after i.v. injection): 0.57±0.08 %ID/g
- Radioactivity level, muscle ([1]; 30 min after i.v. injection): 0.52±0.11 %ID/g
- Radioactivity level, muscle ([1]; 60 min after i.v. injection): 0.47±0.07 %ID/g
- Radioactivity level, pancreas ([1]; 5 min after i.v. injection): 3.40±0.46 %ID/g
- Radioactivity level, pancreas ([1]; 15 min after i.v. injection): 3.75±0.35 %ID/g
- Radioactivity level, pancreas ([1]; 30 min after i.v. injection): 3.64±0.22 %ID/g
- Radioactivity level, pancreas ([1]; 60 min after i.v. injection): 3.70±0.41 %ID/g
- Radioactivity level, small intestine ([1]; 5 min after i.v. injection): 6.98±2.37 %ID/g
- Radioactivity level, small intestine ([1]; 15 min after i.v. injection): 9.11±1.31 %ID/g
- Radioactivity level, small intestine ([1]; 30 min after i.v. injection): 11.02±1.44 %ID/g
- Radioactivity level, small intestine ([1]; 60 min after i.v. injection): 12.43±1.54 %ID/g
- Radioactivity level, spleen ([1]; 5 min after i.v. injection): 3.18±0.67 %ID/g
- Radioactivity level, spleen ([1]; 15 min after i.v. injection): 2.05±0.17 %ID/g
- Radioactivity level, spleen ([1]; 30 min after i.v. injection): 1.66±0.04 %ID/g
- Radioactivity level, spleen ([1]; 60 min after i.v. injection): 1.41±0.24 %ID/g
- Change of radioactivity level in blood by pretreatment with 1 ([2]; blood): not changed
- Change of radioactivity level in brain by pretreatment with 1 ([2]; brain): not changed
- Change of radioactivity level in heart by pretreatment with 1 ([2]; heart): not changed
- Change of radioactivity level in kidney by pretreatment with 1 ([2]; kidney): significantly decreased
- Change of radioactivity level in lung by pretreatment with 1 ([2]; lung): significantly decreased
- Change of radioactivity level in muscle by pretreatment with 1 ([2]; muscle): not changed
- Change of radioactivity level in pancreas by pretreatment with 1 ([2]; pancreas): not changed
- Change of radioactivity level in spleen by pretreatment with 1 ([2]; spleen): significantly decreased
- Percentage of intact tracer in plasma ([3]; mouse plasma, 30 min post-injection, radio-HPLC, n=4): 11.8 ± 2.5%
- Metabolism in vivo (mouse plasma) ([3]; within 30 min post-injection): rapidly metabolized
SMILES: COC(=O)C1=C(C)NC(C)=C(C(=O)OC)C1c1cccc(NC(=O)NCCCN2CCC(c3cccc(O[11CH3])c3)CC2)c1 [[^11C]1]

Reference: paper PMC6379498, “Radiosynthesis and in vivo evaluation of ^11C-labeled BMS-193885 and its desmethyl analog as PET tracers for neuropeptide Y1 receptors” (EJNMMI Radiopharmacy and Chemistry, 2019)
